Reference: patent US20100203531A1, “PREDICTING RESPONSIVENESS TO TEMOZOLOMIDE” (priority 2007, published 2010)

Columns and labels:
Type in all cases: in vivo, human
GBM43 xenograft = assay: Orthotopic intracranial xenograft survival, GBM43
Protocol: (§1) In vivo sensitivity of GBM lines to TMZ: To address whether MGMT methylation or polypeptide expression status are predictive of TMZ responsiveness, the effects of TMZ therapy on survival were evaluated in the panel of xenografts using an orthotopic therapy model. Mice with established intracranial xenografts were treated with 66 mg/kg TMZ or placebo daily for 5 days by oral gavage. This TMZ dosing regimen provides the equivalent dose-exposure to TMZ as the standard adjuvant TMZ dosing regimen for GBM patients of 200 mg/m^2×5 days. All mice were followed until reaching a moribund state, and the relative prolongation of survival following TMZ treatment was calculated for each line relative to placebo treatment (Table 1). […] Further analysis of the relationship between TMZ responsiveness and MGMT methylation status in 17 xenograft lines was conducted by comparing the distribution of median survival prolongation results for methylation-positive and methylation-negative groups of xenografts. From this analysis, MGMT methylation was modestly associated with increased TMZ sensitivity (FIG. 2, p=0.039, two-sample rank sum test). In a similar analysis of MGMT polypeptide expression levels, high levels of MGMT polypeptide expression were invariably associated with relative TMZ resistance, and the absence of MGMT polypeptide expression was associated with significant TMZ sensitivity (r=−0.73, p=0.005). […] While p53, PTEN and EGFR function have been linked to TMZ sensitivity in some models, no correlation between genetic alterations of these genes and TMZ responsiveness was observed.
(§2) Orthotopic model: Therapy evaluations were conducted using an orthotopic tumor model as described elsewhere (Sarkaria et al., Clin Cancer Res, 12:2264-2271 (2006), Giannini et al., Neuro-Oncology, 7:164-176, (2005)). Athymic nude mice (NCI, Frederick, Md.) with established intracranial tumors were randomized into groups of 8 to 10 mice each and treatment was initiated 2 weeks before mice were expected to become moribund. TMZ was purchased from the Mayo Clinic Pharmacy, suspended in Ora-plus (Paddock Laboratories, Minneapolis. […] Mice were observed daily and euthanized when moribund.
(§3) Statistical analysis: Survival distributions were estimated using the Kaplan-Meier method. The log rank test was used to compare survival across treatment groups. All GBM experiments were pooled and Classification and Regression Tree analysis (CART) was used to identify which CpG sites in the MS-PCR assay (CpG sites 78-82, 86-89) were predictive of overall survival in TMZ treated mice. The two-sample rank sum test was used to compare relative differences in survival relative to MGMT MS-PCR status or CpG89 methylation status. Spearman's correlation coefficient was used to assess the association of relative median survival and protein expression levels of MGMT relative to 13-actin.

GBM8 xenograft = assay: Orthotopic intracranial xenograft survival, GBM8
Protocol: as §1
(§4) Orthotopic model: Therapy evaluations were conducted using an orthotopic tumor model as described elsewhere (Sarkaria et al., Clin Cancer Res, 12:2264-2271 (2006), Giannini et al., Neuro-Oncology, 7:164-176, (2005)). Athymic nude mice (NCI, Frederick, Md.) with established intracranial tumors were randomized into groups of 8 to 10 mice each and treatment was initiated 2 weeks before mice were expected to become moribund. TMZ was purchased from the Mayo Clinic Pharmacy, suspended in Ora-plus (Paddock Laboratories, Minneapolis. MN), and administered by oral gavage at 66 mg/kg for 5 days. Mice were observed daily and euthanized when moribund.
(§5) Statistical analysis: Survival distributions were estimated using the Kaplan-Meier method. The log rank test was used to compare survival across treatment groups. All GBM experiments were pooled and Classification and Regression Tree analysis (CART) was used to identify which CpG sites in the MS-PCR assay (CpG sites 78-82, 86-89) were predictive of overall survival in TMZ treated mice. The two-sample rank sum test was used to compare relative differences in survival relative to MGMT MS-PCR status or CpG89 methylation status. […]

GBM46 xenograft = assay: Orthotopic intracranial xenograft survival, GBM46
Protocol: (§6) In vivo sensitivity of GBM lines to TMZ: To address whether MGMT methylation or polypeptide expression status are predictive of TMZ responsiveness, the effects of TMZ therapy on survival were evaluated in the panel of xenografts using an orthotopic therapy model. Mice with established intracranial xenografts were treated with 66 mg/kg TMZ or placebo daily for 5 days by oral gavage. This TMZ dosing regimen provides the equivalent dose-exposure to TMZ as the standard adjuvant TMZ dosing regimen for GBM patients of 200 mg/m^2×5 days. All mice were followed until reaching a moribund state, and the relative prolongation of survival following TMZ treatment was calculated for each line relative to placebo treatment (Table 1). […] Further analysis of the relationship between TMZ responsiveness and MGMT methylation status in 17 xenograft lines was conducted by comparing the distribution of median survival prolongation results for methylation-positive and methylation-negative groups of xenografts. From this analysis, MGMT methylation was modestly associated with increased TMZ sensitivity (FIG. 2, p=0.039, two-sample rank sum test). […]

[1] = system: GBM14 cells transduced with a luciferase-expressing lentiviral construct; assay: Salvage TMZ therapy in intracranial GBM14-luciferase tumors with bioluminescence imaging
Protocol: Development of resistance to TMZ during in vivo therapy: The effect of salvage TMZ therapy in recurrent tumors was studied in the GBM14 xenograft line with the assistance of bioluminescence imaging (BLI). In this study, GBM14 cells were transduced with a luciferase-expressing lentiviral construct and then used to establish intracranial tumors. Mice were randomized into three groups: a) vehicle control, b) single dose of 120 mg/kg TMZ, c) initial TMZ dose followed by a second TMZ dose at the time of tumor regrowth, as indicated by BLI (FIGS. 7A and B). […] Extrapolating to the clinic, the apparent development of TMZ resistance during the course of treatment is reminiscent of patients who experience an initial response to TMZ therapy but then develop progressive disease during latter cycles of TMZ treatment.

GBM14 xenograft = assay: Orthotopic intracranial xenograft survival, GBM14
Protocol: as §1, §2, §3

GBM59 xenograft = assay: Orthotopic intracranial xenograft survival, GBM59
Protocol: as §6

GBM34 xenograft = assay: Orthotopic intracranial xenograft survival, GBM34
Protocol: as §1, §4, §5

GBM38 xenograft = assay: Orthotopic intracranial xenograft survival, GBM38
Protocol: as §6

Cn1nnc2c(C(N)=O)ncn2c1=O [TMZ, Temozolomide]
Survival Prolongation (GBM43 xenograft; GBM43, median survival relative to placebo, 66 mg/kg oral for 5 days (Table 3)): 87%
Survival benefit (GBM43 xenograft; GBM43, prolongation of median survival relative to placebo, TMZ 66 mg/kg oral x5 days): 87%
Survival benefit (GBM43 xenograft; GBM43 generation 6, TMZ 120 mg/kg for 5 days, intracranial): 104%
Survival benefit (GBM43 xenograft; GBM43 generation 10, TMZ 66 mg/kg for 5 days, intracranial): 83%
TMZ median survival (GBM43 xenograft; GBM43 intracranial xenograft, nude mice, TMZ 66 mg/kg oral daily x5 days): 43
Temozolomide median survival (GBM43 xenograft; GBM43 intracranial, athymic nude mice, 66 mg/kg oral gavage for 5 days (Table 3)): 43
Survival Prolongation (GBM8 xenograft; GBM8, median survival relative to placebo, 66 mg/kg oral for 5 days (Table 3)): 110%
Survival benefit (GBM8 xenograft; GBM8, prolongation of median survival relative to placebo, TMZ 66 mg/kg oral x5 days): 110%
TMZ median survival (GBM8 xenograft; GBM8 intracranial xenograft, nude mice, TMZ 66 mg/kg oral daily x5 days): 124
Temozolomide median survival (GBM8 xenograft; GBM8 intracranial, athymic nude mice, 66 mg/kg oral gavage for 5 days (Table 3)): 124
Survival benefit (GBM46 xenograft; GBM46, prolongation of median survival relative to placebo, TMZ 66 mg/kg oral x5 days): 0%
TMZ median survival (GBM46 xenograft; GBM46 intracranial xenograft, nude mice, TMZ 66 mg/kg oral daily x5 days): 50
additional survival from second TMZ dose ([1]; second TMZ dose at time of tumor regrowth/recurrence, beyond single-dose prolongation): 22 days
survival prolongation with a single TMZ dose ([1]; single dose of 120 mg/kg TMZ, relative to placebo/vehicle, intracranial GBM14-luciferase): 56 days
Survival Prolongation (GBM14 xenograft; GBM14, median survival relative to placebo, 66 mg/kg oral for 5 days (Table 3)): 558%
Survival benefit (GBM14 xenograft; GBM14, prolongation of median survival relative to placebo, TMZ 66 mg/kg oral x5 days): 558%
Survival benefit (GBM14 xenograft; GBM14 generation 21, TMZ 120 mg/kg for 5 days, intracranial): 148%
Survival benefit (GBM14 xenograft; GBM14 generation 33, TMZ 66 mg/kg for 5 days, intracranial): 421%
TMZ median survival (GBM14 xenograft; GBM14 intracranial xenograft, nude mice, TMZ 66 mg/kg oral daily x5 days): 154
Temozolomide median survival (GBM14 xenograft; GBM14 intracranial, athymic nude mice, 66 mg/kg oral gavage for 5 days (Table 3)): 217
Survival benefit (GBM59 xenograft; GBM59, prolongation of median survival relative to placebo, TMZ 66 mg/kg oral x5 days): 96%
TMZ median survival (GBM59 xenograft; GBM59 intracranial xenograft, nude mice, TMZ 66 mg/kg oral daily x5 days): 90
Survival Prolongation (GBM34 xenograft; GBM34, median survival relative to placebo, 66 mg/kg oral for 5 days (Table 3)): 294%
Survival benefit (GBM34 xenograft; GBM34, prolongation of median survival relative to placebo, TMZ 66 mg/kg oral x5 days): 294%
TMZ median survival (GBM34 xenograft; GBM34 intracranial xenograft, nude mice, TMZ 66 mg/kg oral daily x5 days): 351
Temozolomide median survival (GBM34 xenograft; GBM34 intracranial, athymic nude mice, 66 mg/kg oral gavage for 5 days (Table 3)): 351
Survival benefit (GBM38 xenograft; GBM38, prolongation of median survival relative to placebo, TMZ 66 mg/kg oral x5 days): 45%
TMZ median survival (GBM38 xenograft; GBM38 intracranial xenograft, nude mice, TMZ 66 mg/kg oral daily x5 days): 80
